Laboratory results from patent US6921539B2, “Antimicrobial therapeutic compositions and method of use” (priority 2002, dated 2005).

How the values were obtained:
[1] = system: acute bronchio pneumonia; assay: In Vivo Treatment of Pneumonia in Sheep, control group (Example 9); details: 15 i.m. injections of 2 ml every 8 hours
Source text: (§1) For example, a normalization of body temperature, the animal has begun to eat if not eating before treatment, the specific symptoms (e.g., diarrhea, coughing, etc.) have ceased.
(§2) Treatments of procarvol by injection were through methods and techniques normally used by those in the agricultural field.
(§3) The following examples are from a control group. These were similar animals and received standard conventional antibiotic treatment with accepted veterinary treatment protocols.
A 60 day old male sheep with an initial weight of 40 lbs (18 kg) was afflicted with acute bronchio pneumonia. Symptoms included fever and difficult breathing. The sheep had been positively diagnosed for […]. The sheep had been treated previously with penicillin. The therapy included 15 intramuscular injections of 2 ml Procaine penicillin G every 8 hours. The temperature of the sheep over the course of treatment is shown below.

[2] = system: Escherichia coli; assay: In Vivo Treatment of Colibacilosis in Pig, control group (Example 8); details: 2 i.m. injections of 2 ml every 12 hours
Source text: as §1, §2, §3
A three (3) week old female Landras pig with an initial weight of 19 lbs (9 kg) was afflicted with Escherichia coli colibacilosis. Symptoms included diarrhea. The pig had been positively diagnosed for the bacterium Escherichia coli. The pig had been treated previously with ampicillin and colicisit. The therapy included two (2) intramuscular injections of 2 ml of ampicillin every 12 hours. The temperature of the pig over the course of treatment is shown below.

[3] = system: Escherichia Coli; assay: In Vivo Treatment of Colibacilosis in Calf, control group (Example 12); details: 5 i.m. injections of 5 ml and infusion of electrolytes every 12 hours
Source text: as §1, §2, §3
A 15 day old male Holstein calf with an initial weight of 90 lbs (41 kg) was afflicted with Escerichia coli colibacilosis. Symptoms fever, diarrhea, dehydration, and loss of appetite. The calf had been positively diagnosed for Escherichia Coli. The calf had not been treated previously. The therapy included five (5) intramuscular injections of 5 ml ampicillin and also the infusion of electrolytes every 12 hours. The temperature of the calf over the course of treatment is shown below.

[4] = system: acute bronchio pneumonia; assay: In Vivo Treatment of Pneumonia in Pig, control group (Example 13); details: 8 i.m. injections of 8 ml every 12 hours
Source text: as §1, §2, §3
A three and one half (3½) month old male Landras pig with an initial weight of 80 lbs (36 kg) was afflicted with acute bronchio pneumonia. Symptoms included coughing, fever, and loss of appetite. The pig had been positively diagnosed for pneumonia. The pig had not been treated previously. The therapy included eight (8) intramuscular injections of 8 ml of ampicillin every 12 hours. The temperature of the pig over the course of treatment is shown below.

[5] = system: Steptococcus uberis; assay: In Vivo Treatment of Mastitis in Cow, control group (Example 14); details: 8 i.m. injections of 8 ml every 12 hours
Source text: as §1, §2, §3
A four (4) year old […] Holstein cow with an initial weight of 1000 lbs (454 kg) was afflicted with mastitis. Symptoms included edema on the udder, and poor quality milk. The cow had been positively diagnosed for Steptococcus uberis. The cow had been previously treated with penicillin and streptomycin. The therapy included eight (8) intramuscular injections of 8 ml of ampicillin every 12 hours. The temperature of the cow over the course of treatment is shown below.

[6] = inactive metabolites after degradation by enzymes; cited from earlier work
[7] = cited from earlier work

Compound: CC1(C)S[C@@H]2[C@H](NC(=O)Cc3ccccc3)C(=O)N2[C@H]1C(=O)O.CCN(CC)CCOC(=O)c1ccc(N)cc1 [Procaine penicillin G]
- outcome of treatment [1]: successful recovery

Compound: CC1(C)S[C@@H]2[C@H](NC(=O)[C@H](N)c3ccccc3)C(=O)N2[C@H]1C(=O)O [ampicillin]
- outcome of treatment [2]: died as a result of the infection
- outcome of treatment [3]: died as a result of the infection
- outcome of treatment [4]: successful recovery
- outcome of treatment [5]: successful recovery

Compound: Cc1ccc(C(C)C)cc1O [carvacrol, 5-isopropyl-2-methylphenol]
- metabolites excreted in the urine [6]: approx. 90%
- metabolites expired from the lungs in the form of carbon dioxide (CO2) [6]: 10%
- solubility in lipids [7]: soluble in lipids

Compound: Cc1ccc(C(C)C)c(O)c1 [thymol, 5-methyl-2[1-methylethyl]phenol]
- metabolites excreted in the urine [6]: approx. 90%
- metabolites expired from the lungs in the form of carbon dioxide (CO2) [6]: 10%
